Laboratory results reported in patent US20110166079A1, “METHODS OF TREATING CANCER WITH APOE PEPTIDES” (COGNOSCI, INC., priority 2008, published 2011).

Tests used:
PP2A [1] = molecular target: T1, PP2A (Mus musculus, UniProt P63330); test: PP2A activity in RAW cells (immunoprecipitation / phosphate release); assay type: cell-based; details: 30 minutes, 2 μM COG112, 10 nM okadaic acid, FIG. 3
T1 construct: cells were lysed and PP2A was immunoprecipitated by adding an antibody targeted to the catalytic C-subunit of PP2A; endogenous in cells; host or cells: mouse macrophagic RAW cells
T1 sequence (P63330 whole entry): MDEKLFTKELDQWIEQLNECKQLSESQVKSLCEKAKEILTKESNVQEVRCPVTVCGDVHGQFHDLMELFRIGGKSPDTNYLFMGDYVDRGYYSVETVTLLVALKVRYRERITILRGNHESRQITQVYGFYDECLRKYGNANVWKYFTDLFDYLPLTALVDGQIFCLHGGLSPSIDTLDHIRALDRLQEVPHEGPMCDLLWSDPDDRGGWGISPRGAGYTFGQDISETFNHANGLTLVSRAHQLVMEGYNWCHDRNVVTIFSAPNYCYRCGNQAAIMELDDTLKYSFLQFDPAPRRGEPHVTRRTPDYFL
Method: Mouse macrophagic RAW cells were incubated with either 2 μM COG112 (SEQ ID NO: 2), 10 nM okadaic acid (an inhibitor of PP2A), or okadaic acid and COG112. After 30 minutes, cells were lysed and PP2A was immunoprecipitated by adding an antibody targeted to the catalytic C-subunit of PP2A. Half of the immunoprecipitate was separated by SDS-PAGE, blotted on to nitrocellulose, and probed with an anti-PP2AC antibody. The remaining portion was assayed for activity by adding 125 μL assay cocktail containing a phospho-threonine substrate peptide to the immunoprecipitated enzyme. After incubating at 37° C. with shaking, a 25 μL aliquot was removed and added to an ammonium molybdate solution (Upstate) that chelates free phosphate and changes color upon chelate formation. Aliquots were removed at various time intervals and the amount of free phosphate released from the peptide was determined by comparison to a phosphate standard curve. The rate of phosphate release was determined by linear fit to the time course data and was normalized to the relative PP2A concentration. […] PP2A activity was reduced in the presence of okadaic acid alone as expected. […] Thus, the active pool of PP2A in a cell can be regulated by ApoE peptides.

B-CLL cells [2] = test: Cytotoxicity on B-CLL cells from CLL patients (MTS assay)
Method: To determine whether COG peptides could counteract the overactivation of the Akt/NFkB pathway in B-CLL cells and effectively induce apoptosis, cytotoxicity testing was performed on freshly isolated B-CLL cells from CLL patients with COG peptides. Blood from CLL patients was collected and CD5+/CD19+ CLL cells were isolated using the RosetteSep™ Human B Cell Enrichment Cocktail. This method depletes whole blood of T cells, monocytes, and NK cells using a proprietary antibody cocktail containing anti-CD14, anti-CD2 and anti-CD16 antibodies to remove T cells, monocytes, and NK cells, respectively. The antibody cocktail crosslinks unwanted cells in human whole blood to multiple red blood cells forming immunorosettes thereby increasing the density of the rosetted cells, such that they pellet along with the free RBCs when centrifuged over a buoyant density medium such as Ficoll-Paque®. The highly enriched B-cell or B-CLL cells are left at the interface between Ficoll and the plasma.
COG peptides were applied to the isolated B-CLL cells (0.25×10^6 cells/well in a 96 well plate) for 72 hours, after which viable cells were assessed using the MTS assay ([…]).
Additional B-CLL cells and peripheral blood mononuclear cells (PBMC; i.e., normal B cells) were isolated from leukemia patients and normal volunteers, respectively, and were treated with a range of COG112 concentrations.

[3] = Cytotoxicity on PBMC from normal volunteers; assay type: cell-based; details: human, FIG. 4
B-CLL cells [4] = test: Annexin V / propidium iodide apoptosis assay on B-CLL cells; assay type: cell-based, human
Method: In a first series of experiments, apoptosis assays using Annexin V staining were performed on freshly isolated B-CLL cells to determine if COG112 could reverse the anti-apoptotic state in these cells and induce apoptosis. […] Apoptosis was measured using the Annexin V-FITC apoptosis detection kit (BD Biosciences-Pharmingen). COG-treated and untreated cells were Annexin V-FITC- and propidium iodide-stained for 15 minutes in 1× binding buffer (10 mM HEPES, pH 7.4, 140 mM NaCl, 2.5 mM CaCl2) and analyzed by flow cytometry. One aliquot of cells was treated with 100 μg/mL etoposide as a positive control for apoptosis induction.

PP2A [5] = test: PP2A activity in K562 CML cells (immunoprecipitation / phosphate release); assay type: cell-based; details: COG112 0.5 μM or 1 μM, 24 hours, FIG. 8B
Jurkat T-cells = test: Growth of Jurkat T-cell leukemia cells; assay type: cell-based, human; details: 1 μM COG112, FIG. 9
Method: To determine whether ApoE peptides could be therapeutic for T-cell leukemia, the effect of COG112 on the growth rate of Jurkat T-cells, a human acute T-cell leukemia cell line, was assessed. Jurkat T-cells (2×10^4 cells per well in a 6 well plate) were grown in 2 mL of media in the absence or presence of 1 μM COG112 added upon plating the cells. Cell growth was measured using a hemacytometer following daily removal of a small aliquot for counting.

With “Ac-RQIKIWFQNRRMKWKKCLRVRLASHLRKLRKRLL-NH2 (N-terminus and C-terminus assumed) [COG112]” the “PP2A activity (rate of phosphate release)” value (PP2A [1]) was “increased”, the “Fold Change” value (B-CLL cells [2]; EC50 relative to COG056 control) was 58.6 and the EC50 (B-CLL cells [2]; human, 72 hours) was 0.22 ± 0.13 µM. The EC50 [3] was ~20 µM, the “ED50 for induction of apoptosis” value (B-CLL cells [4]; B-CLL cells, Annexin V) was “closely mirrored the ED50 for cytotoxicity” and the “apoptosis (Annexin-V+/propidium iodide+ cells)” value (B-CLL cells [4]; increasing concentrations of COG112, flow cytometry, FIG. 5) was “dose-dependent increase in apoptosis”. The PP2A activity (PP2A [5]) was “robust activation” and the “proliferation of Jurkat T-cells” value (Jurkat T-cells) was “significantly inhibited”.
